One test addresses T1, Human PARP-1 enzyme (Homo sapiens, UniProt P09874).
T1 construct: purchased Trevigen
The experiment in a line: In vitro Scintillation Proximity Assay (SPA) for PARP-1 inhibitory activity. The format is biochemical. The conditions noted are these: read-out: in vitro SPA assay PARP-1 pIC50 (converted). The method, boiled down: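 SPA assay: nicked-DNA-activated PARP-1 (0.1–0.2 μg/ml) ADP-ribosylates biotinylated histones (2 μg/ml) using [3H]-NAD+, 20 min at RT in Tris pH 8/DTT/MgCl2, stopped with 2 mM NAD+. Blank-subtracted cpm expressed as % control; IC50 by linear interpolation, reported as pIC50 (10−5 to 3×10−9 M tested).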
In general terms: SPA uses beads or plates that emit light when radiolabelled molecules are held near them.

In another test the test system is HCT116 cells. Kind of test: Antiproliferative activity, Alamar Blue assay, HCT116 cells. More on the design: key to HCT116 antiproliferative activity pIC50: pIC50 = -log IC50 (IC50: conc. reducing growth to 50% of control). It is filed as cell-based, human. To be noted: for IC50: Homo sapiens, HCT-116, HCT116 cells, read-out: HCT116 antiproliferative activity pIC50 (converted); for HCT116 antiproliferative activity pIC50: HCT116 cells. In short, it runs like this: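 HCT116 cells seeded, adhered 24 h, then exposed to compound for 4 days; Alamar Blue (resazurin) added for 4 h at 37 °C, fluorescence read at 540/590 nm. Viability as % of untreated control, triplicate wells; IC50 by probit analysis, reported as pIC50.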
For orientation: Alamar Blue is a resazurin reagent that responds to reducing activity.

T1 sequence (P09874 whole entry): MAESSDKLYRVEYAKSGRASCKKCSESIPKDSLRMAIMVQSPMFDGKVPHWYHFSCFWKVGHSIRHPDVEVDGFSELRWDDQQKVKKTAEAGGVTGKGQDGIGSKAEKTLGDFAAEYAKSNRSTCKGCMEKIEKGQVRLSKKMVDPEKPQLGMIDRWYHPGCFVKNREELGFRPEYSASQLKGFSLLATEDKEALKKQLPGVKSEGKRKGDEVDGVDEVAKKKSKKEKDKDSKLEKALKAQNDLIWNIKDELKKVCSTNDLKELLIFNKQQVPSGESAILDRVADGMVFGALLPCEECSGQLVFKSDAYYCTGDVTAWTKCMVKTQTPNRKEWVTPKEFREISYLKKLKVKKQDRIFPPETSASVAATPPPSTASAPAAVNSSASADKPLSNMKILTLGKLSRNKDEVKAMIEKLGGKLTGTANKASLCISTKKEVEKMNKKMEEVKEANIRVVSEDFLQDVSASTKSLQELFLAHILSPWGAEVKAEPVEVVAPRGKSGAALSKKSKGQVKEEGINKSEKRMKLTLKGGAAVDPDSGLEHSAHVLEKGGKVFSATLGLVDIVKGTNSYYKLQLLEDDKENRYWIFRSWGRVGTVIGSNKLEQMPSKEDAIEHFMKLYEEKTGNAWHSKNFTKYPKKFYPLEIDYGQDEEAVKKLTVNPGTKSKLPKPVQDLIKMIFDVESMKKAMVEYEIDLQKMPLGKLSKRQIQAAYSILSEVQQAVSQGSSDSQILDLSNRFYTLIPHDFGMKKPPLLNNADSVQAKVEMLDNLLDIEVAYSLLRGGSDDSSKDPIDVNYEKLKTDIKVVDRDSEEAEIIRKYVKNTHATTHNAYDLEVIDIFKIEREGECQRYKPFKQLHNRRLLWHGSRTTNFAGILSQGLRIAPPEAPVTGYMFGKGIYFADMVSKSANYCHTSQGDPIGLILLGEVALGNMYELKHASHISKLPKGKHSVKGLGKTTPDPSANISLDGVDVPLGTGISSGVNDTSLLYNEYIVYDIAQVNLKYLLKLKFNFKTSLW

`Cc1cc2ccc(C(C)(C#N)C3CCc4c(C#N)cccc43)cc2[nH]c1=O` (racemic) [Compound 393]: the IC50 was 100 nM at Human PARP-1 enzyme and 6310 nM with HCT116 cells.
Regarding `CCc1cc2ccc([C@@](C)(C#N)CN(C)Cc3ccc(C#N)cc3)cc2[nH]c1=O` (single isomer, unassigned) [Compound 253], the IC50 on Human PARP-1 enzyme was 100 nM; in the test with HCT116 cells, 63.1 nM.
In the case of `CCc1cc2ccc(C(C)(C#N)C3CCc4ccc(Br)cc43)cc2[nH]c1=O` (single isomer, unassigned) [Compound 380], the IC50 at Human PARP-1 enzyme is 126 nM. The “HCT116 antiproliferative activity pIC50” value in the test with HCT116 cells came out at 5.7.
In the same order, the values of `CCc1cc2ccc(C(C)(C#N)C3CCc4ccc(Br)cc43)cc2[nH]c1=O` (single isomer, unassigned) [Compound 381] are 79.4 nM and 7.3.
For `Cc1cc2ccc([C@](C)(C#N)C3CCc4cccnc43)cc2[nH]c1=O` (single isomer, unassigned) [Compound 388], the IC50 on Human PARP-1 enzyme is 200 nM; with HCT116 cells, 6310 nM.
Taken in the same sequence, the figures for `CCc1cc2ccc([C@](C)(C#N)[C@H]3CCOc4ccccc43)cc2[nH]c1=O` (single isomer, unassigned) [Compound 394] were 200 nM and 7940 nM.
Taken in the same sequence, the figures for `CCc1cc2ccc([C@@](C)(C#N)[C@H]3CCOc4ccccc43)cc2[nH]c1=O` (single isomer, unassigned) [Compound 395] were 63.1 nM and 631 nM.
Consider `CCc1cc2ccc([C@](C)(C#N)C[C@H]3CCc4ccccc4O3)cc2[nH]c1=O` (single isomer, unassigned) [Compound 396], for which, on Human PARP-1 enzyme, the IC50 is 100 nM.
For the molecule `CCc1cc2ccc(C(C)(C#N)Cc3cccc(-c4cnn(C)c4)c3)cc2[nH]c1=O` (stereo not drawn) [Compound 17], the IC50 on Human PARP-1 enzyme is 251 nM; with HCT116 cells it was 2510 nM.
Taken in the same sequence, the figures for `CCc1cc2ccc(C(C)(C#N)Cc3cccc(-c4ccccc4)c3)cc2[nH]c1=O` (stereo not drawn) [Compound 18] were 2000 nM and 5010 nM.
On to `CCc1cc2ccc(C(C)(C#N)Cc3cccc(I)c3)cc2[nH]c1=O` (stereo not drawn) [Compound 19], for which the IC50 was 1000 nM on Human PARP-1 enzyme and 50.1 nM in the test with HCT116 cells.
Taken in the same sequence, the figures for `CCc1cc2ccc(C(C)(C#N)Cc3cccc(N(C)C)c3)cc2[nH]c1=O` (stereo not drawn) [Compound 20] were 398 nM and 200 nM.
In the same order, the values of `CCc1cc2ccc(C(C)(C#N)Cc3cccc(N4CCOCC4)c3)cc2[nH]c1=O` (stereo not drawn) [Compound 21] are 398 nM and 1260 nM.
Taken in the same sequence, the figures for `CCc1cc2ccc(C(C)(C#N)Cc3cccc(O)c3)cc2[nH]c1=O` (stereo not drawn) [Compound 22] were 126 nM and greater than 10000 nM.
`CCc1cc2ccc(C(C)(C#N)Cc3cccc(OCc4ccccc4)c3)cc2[nH]c1=O` (stereo not drawn) [Compound 23]: the figures for the IC50 at Human PARP-1 enzyme and with HCT116 cells were 1260 nM and 3160 nM, respectively.
In the same order, the values of `CCc1cc2ccc(C(C)(C#N)Cc3cccc(OCCOC)c3)cc2[nH]c1=O` (stereo not drawn) [Compound 24] are 631 nM and 1000 nM.
Turning to `CCC(=O)c1cccc(CC(C)(C#N)c2ccc3cc(C)c(=O)[nH]c3c2)c1` (stereo not drawn) [Compound 173], the figures for the IC50 on Human PARP-1 enzyme and in the test on HCT116 cells were 126 nM and 200 nM, respectively.
Taken in the same sequence, the figures for `CCc1cc2ccc(C(C)(C#N)Cc3cc(C)cc(C#N)c3)cc2[nH]c1=O` (stereo not drawn) [Compound 174] were 39.8 nM and 100 nM.
Regarding `CCc1cc2ccc(C(C)(C#N)Cc3cccc(S(F)(F)(F)(F)F)c3)cc2[nH]c1=O` (stereo not drawn) [Compound 177], the IC50 at Human PARP-1 enzyme is 79.4 nM; with HCT116 cells, 2000 nM.
In the same order, the values of `CCc1cc2ccc(C(C)(C#N)Cc3cccc(C4(N)CC4)c3)cc2[nH]c1=O` (stereo not drawn) [Compound 180] are 25.1 nM and 2000 nM.
In the same order, the values of `CCc1cc2ccc(C(C)(C#N)CCCN(C)C(=O)c3ccc(F)cc3)cc2[nH]c1=O` (stereo not drawn) [Compound 188] are 79.4 nM and 1000 nM.
Taken in the same sequence, the figures for `CCc1cc2ccc([C@](C)(C#N)CN(C)Cc3ccc(C#N)cc3)cc2[nH]c1=O` [Compound 190] were 63.1 nM and 10000 nM.
In the case of `Cc1cc2ccc(C(C)(C#N)Cc3cccc(Oc4ncccn4)c3)cc2[nH]c1=O` (stereo not drawn) [Compound 191], the results for the IC50 on Human PARP-1 enzyme and in the test on HCT116 cells were 126 nM and 251 nM, respectively.
In the same order, the values of `Cc1cc2ccc(C(C)(C#N)Cc3cccc(Oc4ccccc4)n3)cc2[nH]c1=O` (stereo not drawn) [Compound 193] are 100 nM and 398 nM.
In the same order, the values of `CCc1cc2cc(C)c(C(C)(C#N)Cc3cccc(C#N)n3)cc2[nH]c1=O` (stereo not drawn) [Compound 208] are 100 nM and 6310 nM.
Consider `CCc1cc2ccc(C(C)(C#N)Cc3ccc(Cl)nc3Cl)cc2[nH]c1=O` (stereo not drawn) [Compound 212], for which the values for the IC50 at Human PARP-1 enzyme and with HCT116 cells were 20 nM and 3160 nM, respectively.
Taken in the same sequence, the figures for `COc1cc2ccc(C(C)(C#N)Cc3cccc(C#N)n3)cc2[nH]c1=O` (stereo not drawn) [Compound 218] were 631 nM and 1260 nM.
In the same order, the values of `CCc1cnc(OCCC(C)(C#N)c2ccc3cc(CC)c(=O)[nH]c3c2)nc1` (stereo not drawn) [Compound 222] are 50.1 nM and 3160 nM.
Taken in the same sequence, the figures for `CCc1cc2ccc(C(C)(C#N)CCOc3nccc(OC)n3)cc2[nH]c1=O` (stereo not drawn) [Compound 223] were 50.1 nM and 3980 nM.
On to `CCc1cc2ccc(C(C)(C#N)Cc3ccc(OC)nc3Cl)cc2[nH]c1=O` (stereo not drawn) [Compound 224], for which the IC50 on Human PARP-1 enzyme is 12.6 nM; with HCT116 cells, 2000 nM.
On to `CCc1cc2ccc(C(C)(C#N)Cc3ccc(Cl)nc3OC)cc2[nH]c1=O` (stereo not drawn) [Compound 225], for which the IC50 is 39.8 nM on Human PARP-1 enzyme and 501 nM with HCT116 cells.
Taken in the same sequence, the figures for `CCc1cc2ccc(C(C)(C#N)Cc3cccc(N4CCCC4)n3)cc2[nH]c1=O` (stereo not drawn) [Compound 226] were 50.1 nM and 1260 nM.
Taken in the same sequence, the figures for `Cc1cc2ccc(C(C)(C#N)Cc3cccc(C#N)n3)cc2[nH]c1=O` (stereo not drawn) [Compound 227] were 100 nM and 501 nM.
In the same order, the values of `CCc1cc2ccc(C(C)(C#N)Cc3cc(OC)cc(OC)n3)cc2[nH]c1=O` (stereo not drawn) [Compound 232] are 25.1 nM and 100 nM.
Regarding `CCc1cc2ccc(C(C)(C#N)Cc3cc(C#N)cc4c3OCC4)cc2[nH]c1=O` (stereo not drawn) [Compound 236], the IC50 on Human PARP-1 enzyme is 20 nM; in the test on HCT116 cells it was 200 nM.
Taken in the same sequence, the figures for `CCc1cc2ccc(C(C)(C#N)Cc3cc4ccccc4nn3)cc2[nH]c1=O` (stereo not drawn) [Compound 238] were 39.8 nM and 1580 nM.
For `Cc1cc2ccc([C@@](C)(C#N)[C@@H]3CCc4cc(Br)ccc43)cc2[nH]c1=O` [Compound 240], the figures for the IC50 on Human PARP-1 enzyme and in the test on HCT116 cells were 200 nM and 10000 nM, respectively.
In the same order, the values of `Cc1cc2ccc([C@@](C)(C#N)[C@H]3CCc4cc(Br)ccc43)cc2[nH]c1=O` [Compound 241] are 200 nM and 501 nM.
Taken in the same sequence, the figures for `Cc1cc2ccc([C@](C)(C#N)[C@@H]3CCc4cc(Br)ccc43)cc2[nH]c1=O` [Compound 242] were 158 nM and 50.1 nM.
As for `Cc1cc2ccc(C(C)(C#N)C3CCc4cc(Br)ccc43)cc2[nH]c1=O` (stereo not drawn) [Compound 244], the IC50 at Human PARP-1 enzyme is 200 nM. In the test with HCT116 cells, the “HCT116 antiproliferative activity pIC50” value is 6.8.
On to `Cc1cc2ccc(C(C)(C#N)C3CCc4c(Br)cccc43)cc2[nH]c1=O` (stereo not drawn) [Compound 248], for which the IC50 is 79.4 nM at Human PARP-1 enzyme and 501 nM in the test on HCT116 cells.
In the same order, the values of `Cc1cc2ccc(C(C)(C#N)C3CCc4ccc(Br)cc43)cc2[nH]c1=O` (stereo not drawn) [Compound 249] are 126 nM and 158 nM.
Taken in the same sequence, the figures for `Cc1cc2ccc(C(C)(C#N)C3CCc4ccc(C#N)cc43)cc2[nH]c1=O` (stereo not drawn) [Compound 250] were 100 nM and 200 nM.
In the same order, the values of `C=C(C)c1cccc(CC(C)(C#N)c2ccc3cc(CC)c(=O)[nH]c3c2)c1` (stereo not drawn) [Compound 254] are 31.6 nM and 501 nM.
Turning to `CCc1cc2ccc(C(C#N)(CC)Cc3cccc(C#N)c3)cc2[nH]c1=O` (stereo not drawn) [Compound 265], the IC50 on Human PARP-1 enzyme was 20 nM; in the test with HCT116 cells, 501 nM.
In the same order, the values of `CCc1cc2ccc(C(C)(C#N)Cc3cc(F)cc(C#N)c3)cc2[nH]c1=O` (stereo not drawn) [Compound 266] are 50.1 nM and 200 nM.
Taken in the same sequence, the figures for `CCc1cc2ccc(C(C#N)(CC)Cc3cccc(F)c3)cc2[nH]c1=O` (stereo not drawn) [Compound 270] were 39.8 nM and 1580 nM.
Taken in the same sequence, the figures for `Cc1cc2ccc(C(C)(C#N)CCCCOc3ccccc3)cc2[nH]c1=O` (stereo not drawn) [Compound 272] were 126 nM and 2000 nM.
Regarding `Cc1cc2ccc(C(C)(C#N)Cc3cc(F)cc(F)c3)cc2[nH]c1=O` (stereo not drawn) [Compound 282], the IC50 on Human PARP-1 enzyme was 100 nM; in the test on HCT116 cells, 398 nM.
Taken in the same sequence, the figures for `CCc1cc2ccc(C(C)(C#N)Cc3cc(C)cc(Br)c3)cc2[nH]c1=O` (stereo not drawn) [Compound 284] were 31.6 nM and 158 nM.
In the same order, the values of `CCc1cc2ccc(C(C#N)(CC)Cc3cccc(OC)c3)cc2[nH]c1=O` (stereo not drawn) [Compound 287] are 39.8 nM and 1260 nM.
In the same order, the values of `CCc1cc2ccc(C(C)(C#N)CN(C)CCc3cn(C)c4ccccc34)cc2[nH]c1=O` (stereo not drawn) [Compound 303] are 63.1 nM and 1580 nM.
As for `Cc1cc2ccc(C(C)(C#N)Cc3cccc(Oc4ccccn4)c3)cc2[nH]c1=O` (stereo not drawn) [Compound 304], the IC50 was 100 nM on Human PARP-1 enzyme and 251 nM in the test on HCT116 cells.

Source of the values: patent publication US8778966B2, “Quinolinone derivatives as PARP and tank inhibitors” (Janssen Pharmaceutica, NV, priority 2007, dated 2014).
